According to US8163736B2, “Cytotoxic agents comprising new tomaymycin derivatives” (sanofi-aventis, priority 2006, dated 2012):

Tests used:
Assay type in all cases: cell-based
KB = assay: In vitro potency of tomaymycin derivatives, WST-8 surviving fraction, KB; conditions: Homo sapiens, 96 h; KB cells, incubated 4 days at 37° C., WST-8 read at 450 nm
Method: (§1) Samples of free tomaymycin derivative or tomaymycin derivative conjugate are added to a 96-well flat bottomed tissue culture plate and titrated using serial dilutions ranging from 1×10^−12 M to 3×10^−7 M. Antigen positive tumor cells or antigen negative tumor cells are added to the wells in such a way that there are triplicate samples for each drug concentration for each cell line. The plates are incubated at 37° C. in an atmosphere of 5% CO2 for 4 days.
(§2) At the end of the incubation period, 20 μl of the tetrazolium reagent WST-8 (2-(2-methoxy-nitrophenyl)-3-(4-nitrophenyl)-5-(2,4-disulfophenyl)-2-tetrazolium, monosodium salt) is added to each well, and the plates are returned to the incubator for 2 hours. The absorbance in each well of the plates is then measured using the Molecular Devices plate reader at 450 nm. Surviving fraction of cells at each concentration of tomaymycin derivative or conjugate are plotted.

A549 = assay: In vitro potency of tomaymycin derivatives, WST-8 surviving fraction, A549; conditions: Homo sapiens, 96 h; A549 cells, incubated 4 days at 37° C., WST-8 read at 450 nm
Method: as §1, §2

MCF7 = assay: In vitro potency of tomaymycin derivatives, WST-8 surviving fraction, MCF7; conditions: Homo sapiens, 96 h; MCF7 cells, incubated 4 days at 37° C., WST-8 read at 450 nm
Method: as §1, §2

Compound | IC50 (KB) | IC50 (A549) | IC50 (MCF7)
C/C=C1\C[C@H]2C=Nc3cc(OCc4cc(COc5cc6c(cc5OC)C(=O)N5C/C(=C/C)C[C@H]5C=N6)cc(OC)c4)c(OC)cc3C(=O)N2C1 [Example 2, 8,8′-[5-methoxy-1,3-benzenediylbis(methylenoxy)]-bis[(S)-2-eth-(E)-ylidene-7-methoxy-1,2,3,11a-tetrahydro-5H-pyrrolo[2,1-c][1,4]benzodiazepin-5-one]] | < 0.001 nM | < 0.001 nM | < 0.001 nM
C/C=C1\C[C@H]2C=Nc3cc(OCc4cccc(COc5cc6c(cc5OC)C(=O)N5C/C(=C/C)C[C@H]5C=N6)c4)c(OC)cc3C(=O)N2C1 [Example 1, 8,8′-[1,3-benzenediylbis(methylenoxy)]-bis[(S)-2-eth-(E)-ylidene-7-methoxy-1,2,3,11a-tetrahydro-5H-pyrrolo[2,1-c][1,4]benzodiazepin-5-one]] | < 0.001 nM | < 0.001 nM | < 0.001 nM
C/C=C1\C[C@H]2C=Nc3cc(OCCC(C)CCOc4cc5c(cc4OC)C(=O)N4C/C(=C/C)C[C@H]4C=N5)c(OC)cc3C(=O)N2C1 [Example 5, 8,8′-[3-methyl-1,5-pentanediylbis(oxy)]-bis[(S)-2-eth-(E)-ylidene-7-methoxy-1,2,3,11a-tetrahydro-5H-pyrrolo[2,1-c][1,4]benzodiazepin-5-one]] | 0.1 nM | 0.07 nM | 0.1 nM
